In ChEMBL document CHEMBL1137126, “Aza-boronic acids as non-beta-lactam inhibitors of AmpC-beta-lactamase” (Bioorg Med Chem Lett, 2004) one finds Ki and MIC data, which are given here for 15 compounds.

One assay deals with Beta-lactamase (Escherichia coli K-12, UniProt P00811). Nature of the assay: Apparent inhibition constant against Escherichia coli AmpC beta-lactamase.
The test system of assay [1] is Escherichia coli. Nature of the assay: Minimum inhibitory concentration of compound against Escherichia coli K12AmpC-Ent.
In assay [2] the test system is Escherichia coli. The experiment in a line: Minimum inhibitory concentration of compound against Escherichia coli derepressed.
The test system of another assay is Pseudomonas aeruginosa. The experiment in a line: Minimum inhibitory concentration of compound against Pseudomonas aeruginosa derepressed 88/98. The class given is functional.
A further assay concerns Enterobacter cloacae. The experiment in a line: Minimum inhibitory concentration of compound against Enterobacter cloacae derepressed 12991 ED. The class given is functional.
For another assay, the system named is Citrobacter freundii. The experiment in a line: Minimum inhibitory concentration of compound against Citrobacter freundii derepressed 91/98-2. It counts as functional.

≈ marks a conversion by molar mass, not a printed value.

Beta-lactamase, sequence (P00811 whole entry): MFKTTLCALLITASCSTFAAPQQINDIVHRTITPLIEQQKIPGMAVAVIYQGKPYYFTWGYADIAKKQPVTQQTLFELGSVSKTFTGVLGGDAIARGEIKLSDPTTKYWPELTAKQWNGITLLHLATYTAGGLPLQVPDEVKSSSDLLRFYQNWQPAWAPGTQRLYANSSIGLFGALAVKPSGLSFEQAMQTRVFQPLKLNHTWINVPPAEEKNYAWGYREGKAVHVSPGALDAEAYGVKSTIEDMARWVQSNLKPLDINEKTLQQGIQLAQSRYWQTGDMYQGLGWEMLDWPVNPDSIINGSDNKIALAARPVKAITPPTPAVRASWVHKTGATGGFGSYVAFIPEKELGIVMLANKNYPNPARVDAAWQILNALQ

Regarding `OB(O)c1cccc(/N=N/c2c(O)ccc3ccccc23)c1`, the Ki on Beta-lactamase is 0.3 µM.

On to `OB(O)c1cccc(/N=N/c2ccc(O)cc2)c1`, for which the Ki on Beta-lactamase stood at 0.7 µM.

In the case of `OB(O)c1cccc(/N=N/c2cc(Cl)c(O)c(Cl)c2)c1`, the Ki at Beta-lactamase was 3 µM.

As to `Cc1noc(C)c1/N=N/c1cccc(B(O)O)c1`, the Ki on Beta-lactamase worked out at 1 µM.

Consider `OB(O)c1cccc(/N=N/c2ccc(O)c3ccccc23)c1`, for which, at Beta-lactamase, the Ki turned out to be 0.9 µM.

As for `O=S(=O)(O)c1cc(/N=N/c2cccc(B(O)O)c2)c(O)c2ccccc12`, the Ki at Beta-lactamase was found to be 5 µM.

As to `CC(C)(O/N=C(\C(=O)N[C@@H]1C(=O)N2C(C(=O)[O-])=C(C[n+]3ccccc3)CS[C@H]12)c1csc(N)n1)C(=O)O` [CEFTAZIDIME], the MIC with Escherichia coli [1] came to 64 µg/mL (≈ 117 µM); in the assay on Escherichia coli [2], 128 µg/mL (≈ 234 µM); in the assay on Pseudomonas aeruginosa, 128 µg/mL (≈ 234 µM); against Enterobacter cloacae it was 256 µg/mL (≈ 468 µM); with Citrobacter freundii, 64 µg/mL (≈ 117 µM).

Turning to `O=[N+]([O-])c1cccc(/N=N/c2cccc(B(O)O)c2)c1O`, the Ki on Beta-lactamase amounted to 1.5 µM.

On to `OB(O)c1cccc(/N=N/c2ccc(/N=N/c3c(O)ccc4ccccc34)cc2O)c1`, for which the Ki at Beta-lactamase came to 1.8 µM.

Regarding `OB(O)c1cccc(/N=N/c2ccc(/N=N/c3c(O)cc(O)c4ccccc34)cc2O)c1`, the Ki on Beta-lactamase was found to be 0.7 µM.

Consider `OB(O)c1cccc(/N=N/c2ccccc2O)c1`, for which the Ki on Beta-lactamase was found to be 3.5 µM.

`OB(O)c1cccc(/N=N/c2c(O)cc(O)c3ccccc23)c1`: the Ki on Beta-lactamase stood at 0.45 µM.

In the case of `Nc1cc(B(O)O)ccc1/N=N/c1cccc(B(O)O)c1`, the Ki at Beta-lactamase worked out at 2.7 µM.

For the compound `O=S(=O)(O)c1cc(S(=O)(=O)c2cccc(/N=N/c3cccc(B(O)O)c3)c2)cs1`, the Ki at Beta-lactamase worked out at 2 µM.

Consider `OB(O)c1cc(/N=N/c2ccc(Br)cc2)ccc1O`, for which the Ki at Beta-lactamase stood at 3 µM.
